# Experimental data from ChEMBL document CHEMBL1143344, “Novel DNA-directed alkylating agents: design, synthesis and potent antitumor effect of phenyl N-mustard-9-anilinoacridine conjugates via a carbamate or carbonate linker” (Bioorg Med Chem, 2009).
# Activity calls are given as the source filed them. The calls are words filed in the database; no cut-off is given here.
# Tests used:
# CCRF-CEM [1] = assay: Cytotoxicity against vinblastine-resistant human CCRF-CEM cells after 72 hrs by XTT assay; format: functional, cell-based
# MX1 [2] = assay: Cytotoxicity against human MX1 cells after 72 hrs by SRB assay; format: functional, cell-based; conditions: MX1, 72 h
# CCRF-CEM [3] = assay: Cytotoxicity against taxol-resistant human CCRF-CEM cells after 72 hrs by XTT assay; format: functional, cell-based
# CCRF-CEM [4] = assay: Ratio of IC50 for vinblastine-resistant human CCRF-CEM cells to IC50 for human CCRF-CEM cells; format: functional
# CCRF-CEM [5] = assay: Ratio of IC50 for taxol-resistant human CCRF-CEM cells to IC50 for human CCRF-CEM cells; format: functional
# HCT-116 [6] = assay: Cytotoxicity against human HCT116 cells after 72 hrs by SRB assay; format: functional, cell-based; conditions: HCT-116, 72 h
# CCRF-CEM [7] = assay: Cytotoxicity against human CCRF-CEM cells after 72 hrs by XTT assay; format: functional, cell-based
# [8] = Stability in rat plasma assessed as half life at 5 ug/ml after 10 mins by HPLC; format: ADME, cell-free
# Mus musculus = assay: Toxicity in athymic nude mouse xenografted with human HCT116 cells assessed as body weight loss at 50 mg/kg, iv administered q2d for 7 days; format: organism-based, HCT-116; design: dose 50 mg/kg, route intravenous; conditions: in vivo, 168 h
# HCT-116 [9] = assay: Antitumor activity against human HCT116 cells xenografted in athymic nude mouse assessed as tumor growth inhibition at 50 mg/kg, iv administered q2d for 7 days; format: functional; design: scale not given: the % may be the effect or the level left
# H1299 [10] = assay: Induction of DNA interstrand cross-linking in 20 Gy irradiated human H1299 cells assessed as decrease in DNA migration after 1 hr by comet assay; format: cell-based
# MX1 [11] = assay: Antitumor activity against human MX1 cells xenografted in athymic nude mouse assessed as no tumor relapse at 50 mg/kg, iv administered q2d for 5 days measured after 129 days; format: functional, organism-based; design: dose 50 mg/kg
# MCF7 = assay: Cytotoxicity against human MCF7 cells after 72 hrs by WST1 assay; format: functional, cell-based; conditions: MCF7, 72 h
# [12] = Cytotoxicity against human H1299 cells after 72 hrs by WST1 assay; format: functional, cell-based; conditions: NCI-H1299, 72 h
# PC-3 = assay: Cytotoxicity against human PC3 cells after 72 hrs by WST1 assay; format: functional, cell-based; conditions: PC-3, 72 h
# H1299 [13] = assay: Induction of DNA interstrand cross-linking in 20 Gy irradiated human H1299 cells after 1 hr by comet assay; format: cell-based
# H1299 [14] = assay: Induction of DNA interstrand cross-linking in 20 Gy irradiated human H1299 cells at 200 uM after 1 hr by comet assay; format: cell-based
# [15] = Cytotoxicity against human CL1-5 cells after 72 hrs by WST1 assay; format: functional, cell-based; conditions: CL1-5, 72 h
# H1299 [16] = assay: Induction of DNA interstrand cross-linking in 20 Gy irradiated human H1299 cells at 10 uM after 1 hr by comet assay; format: cell-based
# [17] = Cytotoxicity against human CL1-0 cells after 72 hrs by WST1 assay; format: functional, cell-based; conditions: CL1-0, 72 h
# MX1 [18] = assay: Antitumor activity against human MX1 cells xenografted in athymic nude mouse assessed as total tumor remission at 50 mg/kg, iv administered q2d for 5 days measured after 12 days; format: functional, organism-based; design: dose 50 mg/kg
# MX1 [19] = assay: Antitumor activity against human MX1 cells xenografted in athymic nude mouse assessed as total tumor remission at 50 mg/kg, iv administered q2d for 5 days measured after 20 days; format: functional, organism-based; design: dose 50 mg/kg
# MX1 [20] = assay: Antitumor activity against human MX1 cells xenografted in athymic nude mouse assessed as total tumor remission at 10 mg/kg, iv administered q2d for 3 days measured after 16 days; format: functional, organism-based; design: dose 10 mg/kg
# MX1 [21] = assay: Antitumor activity against human MX1 cells xenografted in athymic nude mouse assessed as total tumor remission at 10 mg/kg, iv administered q2d for 3 days measured after 18 days; format: functional, organism-based; design: dose 10 mg/kg
# MX1 [22] = assay: Antitumor activity against human MX1 cells xenografted in athymic nude mouse assessed as total tumor remission at 10 mg/kg, iv administered q2d for 3 days measured after 20 days; format: functional, organism-based; design: dose 10 mg/kg
# MX1 [23] = assay: Antitumor activity against human MX1 cells xenografted in athymic nude mouse assessed as no tumor relapse at 100 mg/kg, iv administered qd for 6 days measured after 59 days; format: functional, organism-based; design: dose 100 mg/kg
# MX1 [24] = assay: Antitumor activity against human MX1 cells xenografted in athymic nude mouse assessed as total tumor remission at 100 mg/kg, iv administered qd for 6 days measured after 22 days; format: functional, organism-based; design: dose 100 mg/kg
# MX1 [25] = assay: Antitumor activity against human MX1 cells xenografted in athymic nude mouse assessed as total tumor remission at 100 mg/kg, iv administered qd for 6 days measured after 20 days; format: functional, organism-based; design: dose 100 mg/kg
# MX1 [26] = assay: Antitumor activity against human MX1 cells xenografted in athymic nude mouse assessed as total tumor remission at 50 mg/kg, iv administered q2d for 9 days measured after 33 days; format: functional, organism-based; design: dose 50 mg/kg
# MX1 [27] = assay: Antitumor activity against human MX1 cells xenografted in athymic nude mouse assessed as total tumor remission at 50 mg/kg, iv administered q2d for 9 days measured after 31 days; format: functional, organism-based; design: dose 50 mg/kg
# MX1 [28] = assay: Antitumor activity against human MX1 cells xenografted in athymic nude mouse assessed as total tumor remission at 50 mg/kg, iv administered q2d for 9 days measured after 29 days; format: functional, organism-based; design: dose 50 mg/kg
# MX1 [29] = assay: Antitumor activity against human MX1 cells xenografted in athymic nude mouse assessed as total tumor remission at 50 mg/kg, iv administered q2d for 9 days measured after 35 days; format: functional, organism-based; design: dose 50 mg/kg
# MX1 [30] = assay: Antitumor activity against human MX1 cells xenografted in athymic nude mouse assessed as total tumor remission at 40 mg/kg, iv administered q2d for 5 days measured after 20 days; format: functional, organism-based; design: dose 40 mg/kg
Compound,IC50 (CCRF-CEM [1]) [nM],IC50 (MX1 [2]) [nM],IC50 (CCRF-CEM [3]) [nM],Ratio IC50 (CCRF-CEM [4]),Ratio IC50 (CCRF-CEM [5]),IC50 (HCT-116 [6]) [nM],IC50 (CCRF-CEM [7]; read-out: IC50) [nM],IC50 (MCF7) [µM],IC50 [12] [nM],IC50 (PC-3) [µM],IC50 [15] [µM],IC50 [17] [nM],also measured
Nc1cc(CO)cc(Nc2c3ccccc3nc3ccccc23)c1,1600,3.5,600,2.7,0.8,,,,,,,,
COc1ccc(Nc2c3ccccc3nc3ccccc23)cc1NC(=O)Oc1ccc(N(CCCl)CCCl)cc1,119,181,160,1.4,1.9,186,85,,,,,,
O=C(Nc1cc(CO)cc(Nc2c3ccccc3nc3ccccc23)c1)Oc1ccc(N(CCCl)CCCl)cc1,184,99,140,2.5,1.9,568,75,4.8,284,1.61,5.06,2700,half-life at 5 ug/ml [8]: 385 min; Activity (Mus musculus): 8%; Activity (HCT-116 [9]): 98%; Activity (H1299 [10]): Dose-dependent effect; Activity (MX1 [11]): Active; Activity (H1299 [13]): Dose-dependent effect; Activity (H1299 [14]): 39.7%; Activity (H1299 [16]): 74.2%; Activity (MX1 [18]): Active; Activity (MX1 [19]): Active
CCOC(=O)Nc1cc(COC(=O)Oc2ccc(N(CCCl)CCCl)cc2)cc(Nc2c3ccccc3nc3ccccc23)c1,482,89,509,1.5,1.6,639,315,19.8,527,23.3,4.56,410,Activity (MX1 [20]): Active; Activity (MX1 [21]): Active; Activity (MX1 [22]): Active
COc1ccc(Nc2c3ccccc3nc3c(C)cccc23)cc1NC(=O)Oc1ccc(N(CCCl)CCCl)cc1,190,138,27,7.9,1.1,238,24,3.43,357,1.58,8.85,2250,
CC[C@]1(O)C[C@@H]2CN(CCc3c([nH]c4ccccc34)[C@@](C(=O)OC)(c3cc4c(cc3OC)N(C)[C@H]3[C@@](O)(C(=O)OC)[C@H](OC(C)=O)[C@]5(CC)C=CCN6CC[C@]43[C@@H]65)C2)C1 [VINBLASTINE],496,2.2,78,679.5,106.2,1.1,0.73,,,,,,
CC(=O)O[C@H]1C(=O)[C@@]2(C)[C@H]([C@H](OC(=O)c3ccccc3)[C@]3(O)C[C@H](OC(=O)[C@H](O)[C@@H](NC(=O)c4ccccc4)c4ccccc4)C(C)=C1C3(C)C)[C@]1(OC(C)=O)CO[C@@H]1C[C@@H]2O [PACLITAXEL],1270,46,429,980,330,1.1,,,,,,,IC50 (CCRF-CEM [7]): 3.1 nM
Cc1c(NC(=O)Oc2ccc(N(CCCl)CCCl)cc2)cccc1Nc1c2ccccc2nc2c(C)cccc12,142,181,174,0.89,1.09,320,160,,,,,,
COc1cc(NC(=O)Oc2ccc(N(CCCl)CCCl)cc2)cc(Nc2c3ccccc3nc3ccccc23)c1,108,340,309,0.54,1.5,1710,200,,,,,,Activity (MX1 [23]): Active; Activity (MX1 [24]): Active; Activity (MX1 [25]): Active
COc1ccc(NC(=O)Oc2ccc(N(CCCl)CCCl)cc2)cc1Nc1c2ccccc2nc2c(C)cccc12,110,338,210,0.54,1,841,205,,,,,,
CC(C)OC(=O)Nc1cc(COC(=O)Nc2ccc(N(CCCl)CCCl)cc2)cc(Nc2c3ccccc3nc3ccccc23)c1,753,1130,648,4,3.4,301,189,7.01,9170,16,6.63,4000,
Cc1ccc(Nc2c3ccccc3nc3ccccc23)cc1NC(=O)Oc1ccc(N(CCCl)CCCl)cc1,158,214,216,2.1,2.8,434,76,,,,,,
CCOC(=O)Nc1cc(COC(=O)Nc2ccc(N(CCCl)CCCl)cc2)cc(Nc2c3ccccc3nc3ccccc23)c1,,597,,,,,85,,,,,,
Cc1ccc(Nc2c3ccccc3nc3c(C)cccc23)cc1NC(=O)Oc1ccc(N(CCCl)CCCl)cc1,157,286,169,1.2,1.3,607,132,,,,,,Activity (Mus musculus): 8%; Activity (HCT-116 [9]): 89%; Activity (MX1 [26]): Active; Activity (MX1 [27]): Active; Activity (MX1 [28]): Active; Activity (MX1 [29]): Active
Cc1ccc(NC(=O)Oc2ccc(N(CCCl)CCCl)cc2)cc1Nc1c2ccccc2nc2c(C)cccc12,93,163,138,0.7,1.05,263,132,5.71,623,4.47,10.6,4660,
COc1ccc(NC(=O)Oc2ccc(N(CCCl)CCCl)cc2)cc1Nc1c2ccccc2nc2ccccc12,254,1560,583,,1.08,709,541,,,,,,
OCc1cc(Nc2c3ccccc3nc3ccccc23)cc(OCCN(CCCl)CCCl)c1,34,3.5,7.5,4.9,1.1,,,,,,,,
Cc1cccc2c(Nc3cc(CO)cc(NC(=O)Oc4ccc(N(CCCl)CCCl)cc4)c3)c3ccccc3nc12,127,84,97,1.9,1.4,438,67,9.01,457,5.98,12.6,1870,Activity (MX1 [30]): Active
Cc1cccc2c(Nc3cc(COC(=O)Nc4ccc(N(CCCl)CCCl)cc4)cc(NC(=O)OC(C)(C)C)c3)c3ccccc3nc12,1420,5930,3360,1.9,4.5,2400,750,,,,,,
